# In patent US20100035848A1, “THERAPY FOR DISORDERS OF THE PROXIMAL DIGESTIVE TRACT” (priority 2008, published 2010):
# Where “and” joins values, the source holds several entries; their conditions need not be identical. Identical values can stand only once.
# What was measured:
# [1] = test system: diclofenac-induced gastric damage; assay: Acute diclofenac-induced gastric toxicity in rats: gastric damage score; type: in vivo, rat; conditions: Group C: GL1001 90 mg/kg oral gavage 30 min before diclofenac 50 mg/kg oral, 3 h; vehicle-diclofenac Group B 17.80 ± 5.08; p<0.02
# Description: (§1) Male Wistar rats were deprived of food but not water for 16 hours prior to oral administration of GL1001 90 mg/kg, incubated for 30 minutes and then given oral diclofenac 50 mg/kg. Each group consisted of 6 rats. As a negative control, one group received vehicle pretreatment, and then received vehicle instead of diclofenac. A positive control group received PGE2 100 μg/kg orally, 30 minutes prior to administration of diclofenac. All treatments were administered by oral gavage.
# (§2) Three hours after diclofenac treatment, all animals were sacrificed and stomachs were removed and imaged to determine the severity of gastric damage. Additionally, stomach tissue samples were taken to assess disease activity and pharmacodynamic effects. Gastric damage scores were determined from photographic images (Ma & Wallace (2003) Am. J. Physiol. Gastrointest. Liver Physiol. 279; 341-346). Removed stomachs were opened along the greater curvature, pinned out on a wax block, and photographed along a 25 mm ruler reference with a digital 35 mm camera. The lesion area was then determined using enlarged images and computer software (www.scioncorp.co/pages/scion_image_windows.htm) that allows superimposed drawing of the perimeter of a wound and calculation of the area based on the ruler reference. Stomach samples (excluding forestomach) were used for measurements of PGE2 concentration, MPO activity and ACE2 activity. PRE2 determinations are used in this study as a hiomarker of diclofenac effect since its mechanism of action involves inhibition of cyclooxygenase (COX-2 and COX-1) enzymes which in turn results in inhibition of PGE2 synthesis. Concentration of PGE2 from stomach tissue samples was performed as described by Souza et al. (2003), supra, and quantification was obtained by LC-MS. MTO, an enzyme found in abundance in granulocytes, is used as a biochemical marker of tissue inflammation. When tissues undergo inflammatory processes, granulocytes are recruited to the site of inflammation and infiltrate the affected tissue giving rise to increase MPO activity (Souza et al. (2003), supra). Last, the extent of inhibition of ACE2 activity was determined to establish whether GL1001 was effective in inhibiting its ACE2 target in stomach tissues. The ACE2 activity assay is similar to the method of Vickers et al. (2002) J. Biol. Chem. 277:14838-14843, wherein purified recombinant ACE2 (100 pM) and a quenched fluorescent substrate (100-150 μM APK (7-methoxycoumarin-4-yl)acetyl-Ala-Pro-Lys (2,4-dinitrophenyl)) are used in end-point fluorescence reactions (excitation 320 nm, emission 405 nm). For stomach ACE2 measurements, tissues were homogenized in the presence of a general protease inhibitor (PMSF) and specific ACE inhibitors. […]
# (§3) Data are expressed as means with standard errors. […]
# [2] = test system: NF-κB dependent transcription; assay: In vivo imaging of basal NF-κB dependent transcription in NF-κB::Luc reporter mice; design: species or system mouse; conditions: male NF-κB::Luc mice, 4 hours, FIG. 2
# Description: GL1001 was tested for in vivo anti-inflammatory activity by examining its effects on basal levels of NF-κB dependent transcription in mice engineered in the germline with a construct containing an NF-κB enhancer linked to a luciferase gene (i.e., NF-κB::Luc mice), such that this NE-κB reporter construct is present in all cells of the mice.
# More particularly, transgenic NF-κB::Luc mice were generated using three NF-κB response elements from the Igκ light chain promoter fused to a firefly luciferase gene as described by Carlsen et al. (2002) J. Immunol. 168:1441-1446. Pronuclear microinjection of purified construct DNA was used to generate transgenic founders in the C57BL/6 XCBA/J background. Founders were subsequently back-crossed to the C57BL/6 albino background. […] Signal data were also quantitated and archived using the Living Image® software. Photons of light were quantitated using an oval region of interest (ROI) of varying sizes depending on the procedure, as described further below.
# To test for in vivo effects of GL1001 on basal levels of NF-κB dependent transcription, male NF-κB::Luc mice were subjected to quantitative in vivo imaging of the abdominal area (using a fixed ROT of 2.76×3.7 cm) as described above, immediately before, and at 2, […]
# [3] = test system: gastric PGE2; assay: Acute diclofenac-induced gastric toxicity in rats: gastric PGE2 concentration; type: in vivo, rat; conditions: Group C: GL1001 oral before diclofenac 50 mg/kg; vehicle/vehicle Group A 43.22 ± 12.13
# Description: as §1
# as §2, with “PRE2 determinations are used in this study as a hiomarker of diclofenac effect since its mechanism of action involves inhibition of cyclooxygenase (COX-2 and COX-1) enzymes which in turn results in inhibition of PGE2 synthesis.” left out, “MTO, an enzyme found in abundance in granulocytes, is used as a biochemical marker of tissue inflammation. When tissues undergo inflammatory processes, granulocytes are recruited to the site of inflammation and infiltrate the affected tissue giving rise to increase MPO activity (Souza et al. (2003), supra).” left out, “nm).” for “nm). For stomach ACE2 measurements, tissues were homogenized in the presence of a general protease inhibitor (PMSF) and specific ACE inhibitors.”
# as §3
# [4] = test system: LPS-induced NF-κB dependent transcription; assay: In vivo imaging of LPS-induced NF-κB dependent transcription in NF-κB::Luc mice; design: species or system mouse
# Text: More particularly, transgenic NF-κB::Luc mice were generated using three NF-κB response elements from the Igκ light chain promoter fused to a firefly luciferase gene as described by Carlsen et al. (2002) J. Immunol. 168:1441-1446. Pronuclear microinjection of purified construct DNA was used to generate transgenic founders in the C57BL/6 XCBA/J background. Founders were subsequently back-crossed to the C57BL/6 albino background. All experimental protocols were approved by the Institutional Animal Care and Use Committee and conform to the ILAR guide for the care and used of laboratory animals. For in vivo imaging, NF-κB::Luc mice were injected intraperitoneally with luciferin (150 mg/1 kg) 10 minutes before imaging, anesthetized (using 1-3% isoflurane) and placed into a light-tight camera box. […] Signal data were also quantitated and archived using the Living Image® software. Photons of light were quantitated using an oval region of interest (ROI) of varying sizes depending on the procedure, as described further below.
# GL1001 was further tested for in vivo anti-inflammatory activity by examining its effects on bacterial LPS-induced NF-κB dependent transcription in NF-κB::Luc mice. […] Mice were subjected to quantitative abdominal imaging at 2, 4 and 6 hours following LPS administration, as described above. […] Luciferase signal was quantitated from several regions of interest. […]
# [5] = test system: activator protein-1 (AP-1); assay: In vivo basal reporter luciferase expression in AP-1::Luc mice; design: species or system mouse; conditions: data not shown
structure (smiles),measurement,setting,value
"CC(C)C[C@H](N[C@@H](Cc1cncn1Cc1cc(Cl)cc(Cl)c1)C(=O)O)C(=O)O [GL1001, (S,S)-2-[1-carboxy-2-[3-(3,5-dichlorobenzyl)-3H-imidazol-4-yl]-ethylamino]-4-methylpentanoic acid]",Gastric damage score,[1],2.6 and 2.63 ± 0.87
same,inhibition of basal in vivo levels of NF-κB dependent transcription in abdominal ROI,"[2]; 300 mg/kg s.c., p<0.01",over 40%
same,inhibition of basal in vivo levels of NF-κB dependent transcription in abdominal ROI,[2]; both lower doses s.c.,lesser but still significant extents
same,Gastric PGE2 concentration,[3],0 pg/mg
same,"LPS induced NF-κB signaling response, abdominal region","[4]; GL1001 30, 100 and 300 mg/kg s.c. 1 hour before LPS i.v., FIG. 3",significantly reduced
same,"LPS-induced NF-κB signaling, abdominal region","[4]; repeat with dose range 3-100 mg/kg s.c., effect at 30 and 100 mg/kg, FIG. 4",significantly reduced
same,effect on basal in vivo levels of reporter luciferase expression,[5],no significant effect
